Experiments:
M14 = experiment: panel of 60 human tumor cell lines, growth inhibition (Melanoma); conditions: Homo sapiens; for GI50: M14; for CC50: M14, read-out: LC50; for IC (TGI): M14, read-out: TGI
MDA-MB-468 = experiment: panel of 60 human tumor cell lines, growth inhibition (Breast Cancer); conditions: Homo sapiens; for GI50: MDA-MB-468; for CC50: MDA-MB-468, read-out: LC50; for IC (TGI): MDA-MB-468, read-out: TGI
NCI-H322M = experiment: panel of 60 human tumor cell lines, growth inhibition (Non-Small Cell Lung Cancer); conditions: Homo sapiens; for CC50: read-out: LC50; for IC (TGI): read-out: TGI
UACC-62 = experiment: panel of 60 human tumor cell lines, growth inhibition (Melanoma); conditions: Homo sapiens; for GI50: UACC-62; for CC50: UACC-62, read-out: LC50; for IC (TGI): UACC-62, read-out: TGI
HT29 = experiment: panel of 60 human tumor cell lines, growth inhibition (Colon Cancer); conditions: for Percent Growth: HT29; for GI50 / CC50 / IC (TGI): Homo sapiens; for GI50: HT-29; for CC50: HT-29, read-out: LC50; for IC (TGI): HT-29, read-out: TGI
SNB-75 = experiment: panel of 60 human tumor cell lines, growth inhibition (CNS Cancer); conditions: Homo sapiens; for GI50: SNB-75; for CC50: SNB-75, read-out: LC50; for IC (TGI): SNB-75, read-out: TGI
SNB-19 = experiment: as above; conditions: Homo sapiens; for GI50: SNB-19; for CC50: SNB-19, read-out: LC50; for IC (TGI): SNB-19, read-out: TGI
U251 = experiment: as above; conditions: Homo sapiens; for GI50: U-251; for CC50: U-251, read-out: LC50; for IC (TGI): U-251, read-out: TGI
A549/ATCC = experiment: panel of 60 human tumor cell lines, growth inhibition (Non-Small Cell Lung Cancer); conditions: Homo sapiens; for CC50: A549, read-out: LC50; for IC (TGI): A549, read-out: TGI
NCI-H23 = experiment: as above; conditions: Homo sapiens; for GI50: NCI-H23; for CC50: NCI-H23, read-out: LC50; for IC (TGI): NCI-H23, read-out: TGI
SK-MEL-28 = experiment: panel of 60 human tumor cell lines, growth inhibition (Melanoma); conditions: Homo sapiens; for GI50: SK-MEL-28; for CC50: SK-MEL-28, read-out: LC50; for IC (TGI): SK-MEL-28, read-out: TGI
PC-3 = experiment: panel of 60 human tumor cell lines, growth inhibition (Prostate Cancer); conditions: Homo sapiens; for GI50: PC-3; for CC50: PC-3, read-out: LC50; for IC (TGI): PC-3, read-out: TGI
A498 = experiment: panel of 60 human tumor cell lines, growth inhibition (Renal Cancer); conditions: Homo sapiens; for GI50: A498; for CC50: A498, read-out: LC50; for IC (TGI): A498, read-out: TGI
SR = experiment: panel of 60 human tumor cell lines, growth inhibition (Leukemia); conditions: Homo sapiens; for CC50: read-out: LC50; for IC (TGI): read-out: TGI
TK-10 = experiment: panel of 60 human tumor cell lines, growth inhibition (Renal Cancer); conditions: Homo sapiens; for CC50: TK-10, read-out: LC50; for IC (TGI): TK-10, read-out: TGI
SF-295 = experiment: panel of 60 human tumor cell lines, growth inhibition (CNS Cancer); conditions: Homo sapiens; for GI50: SF-295; for CC50: SF-295, read-out: LC50; for IC (TGI): SF-295, read-out: TGI
OVCAR-3 = experiment: panel of 60 human tumor cell lines, growth inhibition (Ovarian Cancer); conditions: for GI50 / Percent Growth: OVCAR-3; for CC50: OVCAR-3, read-out: LC50

## C=C1C(=O)O[C@H]2[C@H]1CC/C(COC(=S)n1ccnc1)=C\CC[C@@]1(C)O[C@@H]21 [JVM 66]
M14
  GI50: 12.6 µM
  CC50: 89.2 µM
  IC (TGI): 33.6 µM
MDA-MB-468
  GI50: 3.55 µM
  CC50: > 100 µM
  IC (TGI): 28.5 µM
NCI-H322M
  GI50: 69.5 µM
  CC50: > 100 µM
  IC (TGI): 106 µM
UACC-62
  GI50: 13.9 µM
  CC50: 74.8 µM
  IC (TGI): 32.3 µM
HT29; Log10 Concentration −4.0
  Percent Growth: −70%
HT29; Log10 Concentration −5.0
  Percent Growth: 60%
HT29; Log10 Concentration −6.0
  Percent Growth: 105%
HT29; Log10 Concentration −7.0
  Percent Growth: 100%
HT29; Log10 Concentration −8.0
  Percent Growth: 99%
HT29
  GI50: 12 µM
  CC50: 69.9 µM
  IC (TGI): 29 µM
SNB-75
  GI50: 39.3 µM
  CC50: > 100 µM
  IC (TGI): > 106 µM
SNB-19
  GI50: 54.3 µM
  CC50: > 100 µM
  IC (TGI): > 100 µM
U251
  GI50: 32.5 µM
  CC50: > 100 µM
  IC (TGI): > 100 µM
A549/ATCC
  CC50: > 100 µM
  IC (TGI): 106 µM
NCI-H23
  GI50: 13.5 µM
  CC50: > 100 µM
  IC (TGI): 59.8 µM
SK-MEL-28
  GI50: 15.7 µM
  CC50: 99.3 µM
  IC (TGI): 39.5 µM
PC-3
  GI50: 12 µM
  CC50: > 100 µM
  IC (TGI): 66.6 µM
A498
  GI50: 14.5 µM
  CC50: > 100 µM
  IC (TGI): 65.5 µM
SR
  GI50: 6.17 µM
  CC50: > 100 µM
  IC (TGI): 38.5 µM
TK-10; TK-10, TK-10, NCI five dose
  GI50: 10.5 µM
TK-10
  CC50: 58.2 µM
  IC (TGI): 24.8 µM
SF-295
  GI50: 45 µM
  CC50: > 100 µM
  IC (TGI): 106 µM
OVCAR-3; Homo sapiens
  GI50: 10.4 µM
  CC50: 49.2 µM
OVCAR-3; Log10 Concentration −4.0
  Percent Growth: −96%
OVCAR-3; Log10 Concentration −5.0
  Percent Growth: 53%
OVCAR-3; Log10 Concentration −6.0
  Percent Growth: 103%
OVCAR-3; Log10 Concentration −7.0
  Percent Growth: 130%
OVCAR-3; Log10 Concentration −8.0
  Percent Growth: 101%

## C=C1C(=O)O[C@H]2[C@H]1CC/C(COC(=O)NCCN1CCCC1)=C\CC[C@@]1(C)O[C@@H]21 [JVM 59, ((1aR,7aS,10aS,10bS,E)-1a-methyl-8-methylene-9-oxo-1a,2,3,6,7,7a,8,9,10a,10b-decahydrooxireno[2′,3′:9,10]cyclodeca[1,2-b]furan-5-yl)methyl-(2-(pyrrolidin-1-yl)ethyl)carbamate]
M14
  GI50: 9.65 µM
  CC50: 58.1 µM
  IC (TGI): 24 µM
MDA-MB-468
  GI50: 2.3 µM
  CC50: 42.9 µM
  IC (TGI): 9.06 µM
NCI-H322M
  GI50: 73.9 µM
  CC50: > 100 µM
  IC (TGI): > 100 µM
UACC-62
  GI50: 13.3 µM
  CC50: 55.8 µM
  IC (TGI): 27.3 µM
HT29; Log10 Concentration −4.0
  Percent Growth: −76%
HT29; Log10 Concentration −5.0
  Percent Growth: 59%
HT29; Log10 Concentration −6.0
  Percent Growth: 99%
HT29; Log10 Concentration −7.0
  Percent Growth: 101%
HT29; Log10 Concentration −8.0
  Percent Growth: 98%
HT29
  GI50: 11.7 µM
  CC50: 64.4 µM
  IC (TGI): 27.4 µM
SNB-75
  GI50: 18 µM
  CC50: > 100 µM
  IC (TGI): 79.3 µM
SNB-19
  GI50: 59.1 µM
  CC50: > 100 µM
  IC (TGI): > 100 µM
U251
  GI50: 26.7 µM
  CC50: > 100 µM
  IC (TGI): 93.1 µM
A549/ATCC; A549
  GI50: 27.6 µM
A549/ATCC
  CC50: > 100 µM
  IC (TGI): 96.5 µM
NCI-H23
  GI50: 16.4 µM
  CC50: 80.4 µM
  IC (TGI): 36.3 µM
SK-MEL-28
  GI50: 12.3 µM
  CC50: 52 µM
  IC (TGI): 25.3 µM
PC-3
  GI50: 15.7 µM
  CC50: 70.1 µM
  IC (TGI): 33.2 µM
A498
  GI50: 20.4 µM
  CC50: 95.2 µM
  IC (TGI): 44.1 µM
SR
  GI50: 10.2 µM
  CC50: > 100 µM
  IC (TGI): 39.3 µM
TK-10; TK-10, TK-10, five dose
  GI50: 3.11 µM
TK-10; TK-10, TK-10, 5-dose assay
  GI50: 3.11 µM
TK-10
  CC50: 40.2 µM
  IC (TGI): 14.1 µM
SF-295
  GI50: 48.8 µM
  CC50: > 100 µM
  IC (TGI): > 100 µM
OVCAR-3; Homo sapiens
  GI50: 8.41 µM
  CC50: 46.4 µM
OVCAR-3; Homo sapiens, OVCAR-3, read-out: TGI
  IC (TGI): 20.8 µM
OVCAR-3; Log10 Concentration −4.0
  Percent Growth: −98%
OVCAR-3; Log10 Concentration −5.0
  Percent Growth: 46%
OVCAR-3; Log10 Concentration −6.0
  Percent Growth: 102%
OVCAR-3; Log10 Concentration −7.0
  Percent Growth: 100%
OVCAR-3; Log10 Concentration −8.0
  Percent Growth: 101%
